Target: T1, mouse Tas2r117 (Mus musculus, UniProt Q7M715)
T1 construct: expressed in transfected cells; host or cells: HEK293T-Gα16gust44
T1 sequence (Q7M715 1-330): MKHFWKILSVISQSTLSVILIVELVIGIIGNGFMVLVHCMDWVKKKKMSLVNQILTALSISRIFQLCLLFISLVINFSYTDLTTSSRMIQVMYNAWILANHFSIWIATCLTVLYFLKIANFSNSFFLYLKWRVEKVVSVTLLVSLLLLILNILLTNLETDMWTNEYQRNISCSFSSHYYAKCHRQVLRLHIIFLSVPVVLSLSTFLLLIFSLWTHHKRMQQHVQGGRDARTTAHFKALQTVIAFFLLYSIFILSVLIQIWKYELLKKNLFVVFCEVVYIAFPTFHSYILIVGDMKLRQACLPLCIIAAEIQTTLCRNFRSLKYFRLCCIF
Test: Calcium imaging assay (FLIPR), HEK293T-Gα16gust44 cells transfected with mouse Tas2r117
Assay type: cell-based
Settings: for Δ F/F: Tas2r117; for RLU: sheet Tas2r117, time trace
Description: This set of bile acids was chosen because of their commercial availability in high purities, their diversity within the class of bile acids and their previous detection and quantitation in human blood. Stock solutions were prepared in DMSO.
As basal growth medium for the HEK293T-Gα16gust44 cell line[17],[59] served Dulbecco’s modified eagle medium (DMEM) (Thermo Fisher Scientific, Darmstadt, Germany) supplemented with 10 % fetal bovine serum (Sigma-Aldrich, Steinheim, Germany), 2 mM L-glutamine (Sigma-Aldrich, Steinheim, Germany), 100 units/ml penicillin (Sigma Aldrich, Steinheim, Germany) and 100 µg/ml streptomycin (Sigma Aldrich, Steinheim, Germany). Growth conditions were 37 °C, 5 % CO2 and saturated air-humidity[60].
HEK293T-Gα16gust44 cells were seeded on poly-D-lysine (10 µg/ml) coated 96-well plates to reach a confluence of 40-60 % the next day. For transient transfection 150 ng of plasmid DNA containing the receptor of interest and 0.3 µl lipofectamine 2000 (Thermo Fisher Scientific, Darmstadt, Germany) per well were used and transfection took place according to the manual of lipofectamine 2000. […] The empty vector DNA (mock) was transfected as negative control[14],[41].
Cells were loaded using the calcium-sensitive fluorescent dye Fluo-4-AM (Abcam, Cambridge, Great Britain) in the presence of 2.5 mM probenecid (Sigma-Aldrich, Steinheim, Germany) the day after transfection[13],[41]. 1 h after loading, cells were washed with C1 buffer using a BioTek Cell Washer, incubated in the dark for half an hour and washed again. For automated agonist application and measurement of fluorescence changes, a FLIPR^TETRA device (Molecular Devices, San José, United States) was used. Viability of cells was tested by application of 100 nM Somatostatin 14 (Bachem, Bubendorf, Switzerland)[42].
Measured data were negative control corrected by subtracting the signal of the mock-transfected cells and exported to Microsoft Excel using the FLIPR software ScreenWorks 4.2. In Microsoft Excel software, standardization of maximum fluorescence intensities to the basal fluorescence and normalization to the buffer-only control was done to calculate the relative fluorescence changes (ΔF/F).
Initial screening experiments performed in duplicate wells were confirmed by at least one replication and representative traces were selected for display. All dose-response relationships were determined by three independent experiments (biological replicates) performed in duplicates (technical replicates). Threshold concentrations, defined as lowest substance concentrations leading to statistically significant elevated fluorescence changes in receptor-transfected cells compared with empty vector-transfected cells, were determined using SigmaPlot with Student’s t-test to evaluate statistical significance (p < 0.01).

C[C@H](CCC(=O)NCCS(=O)(=O)O)[C@H]1CC[C@H]2[C@@H]3[C@H](O)C[C@@H]4C[C@H](O)CC[C@]4(C)[C@H]3C[C@H](O)[C@]12C [Taurocholic Acid, taurocholic acid]
EC50: 37.4 ± 7.3 µM | Δ F/F (conc. 0,01 mM): 0.02164 | Δ F/F (conc. 0,1 mM): 0.0925 | Δ F/F (conc. 0,03 mM): 0.05976 | Δ F/F (conc. 0,3 mM): 0.1209 | Δ F/F (conc. 0,0003 mM): -0.001001 | Δ F/F (conc. 0,001 mM): -0.004431 | Δ F/F (conc. 0,003 mM): 0.00222 | RLU (Time (s) 0): 0 RLU | RLU (Time (s) 2): 37 RLU | RLU (Time (s) 4): -4.077 RLU | RLU (Time (s) 6): 12.5668 RLU | RLU (Time (s) 8): 5.638 RLU | RLU (Time (s) 12): -15.6594 RLU | RLU (Time (s) 14): 17.1601 RLU | RLU (Time (s) 16): -10.5322 RLU | RLU (Time (s) 18): -8.953 RLU | RLU (Time (s) 18.797): 34.4566 RLU | RLU (Time (s) 20.797): 16.7527 RLU | RLU (Time (s) 22.797): -7.054 RLU | RLU (Time (s) 24.797): 38.2926 RLU | RLU (Time (s) 26.797): 125.403 RLU | RLU (Time (s) 28.797): 141.128 RLU | RLU (Time (s) 30.797): 183.922 RLU | RLU (Time (s) 32.797): 250.112 RLU | RLU (Time (s) 34.797): 267.824 RLU | RLU (Time (s) 36.797): 315.731 RLU | RLU (Time (s) 38.797): 324.81 RLU | RLU (Time (s) 40.797): 359.212 RLU | RLU (Time (s) 42.797): 402.392 RLU | RLU (Time (s) 44.797): 440.644 RLU | RLU (Time (s) 46.797): 454.758 RLU | RLU (Time (s) 48.797): 463.447 RLU | RLU (Time (s) 50.797): 471.258 RLU | RLU (Time (s) 52.797): 487.155 RLU | RLU (Time (s) 54.797): 505.642 RLU | RLU (Time (s) 56.797): 516.341 RLU | RLU (Time (s) 58.797): 527.833 RLU | RLU (Time (s) 60.797): 539.947 RLU | RLU (Time (s) 62.797): 536.466 RLU | RLU (Time (s) 64.797): 575.129 RLU | RLU (Time (s) 66.797): 570.621 RLU | RLU (Time (s) 68.797): 568.562 RLU | RLU (Time (s) 70.797): 591.97 RLU | RLU (Time (s) 72.797): 606.798 RLU | RLU (Time (s) 74.797): 593.706 RLU | RLU (Time (s) 76.797): 614.892 RLU | RLU (Time (s) 78.797): 632.141 RLU | RLU (Time (s) 80.797): 632.141 RLU | RLU (Time (s) 82.797): 632.241 RLU | RLU (Time (s) 84.797): 611.445 RLU | RLU (Time (s) 86.797): 626.947 RLU | RLU (Time (s) 88.797): 643.242 RLU | RLU (Time (s) 90.797): 605.466 RLU | RLU (Time (s) 92.797): 611.522 RLU | RLU (Time (s) 94.797): 620.11 RLU | RLU (Time (s) 96.797): 645.547 RLU | RLU (Time (s) 98.797): 644.046 RLU | RLU (Time (s) 100.797): 637.565 RLU | RLU (Time (s) 102.797): 626.02 RLU | RLU (Time (s) 104.797): 634.671 RLU | RLU (Time (s) 106.797): 616.97 RLU | RLU (Time (s) 108.797): 624.712 RLU | RLU (Time (s) 110.797): 625.807 RLU | RLU (Time (s) 112.797): 626.586 RLU | RLU (Time (s) 114.797): 603.263 RLU | RLU (Time (s) 116.797): 606.551 RLU | RLU (Time (s) 118.797): 596.327 RLU | RLU (Time (s) 120.797): 576.654 RLU | RLU (Time (s) 122.797): 563.677 RLU | RLU (Time (s) 124.797): 585.101 RLU | RLU (Time (s) 126.797): 566.056 RLU | RLU (Time (s) 128.797): 584.636 RLU | RLU (Time (s) 130.797): 552.659 RLU | RLU (Time (s) 132.797): 568.02 RLU | RLU (Time (s) 134.797): 561.297 RLU | RLU (Time (s) 136.797): 551.223 RLU | RLU (Time (s) 137.562): 556.479 RLU | RLU (Time (s) 143.578): 502.769 RLU | RLU (Time (s) 149.578): 498.126 RLU | RLU (Time (s) 155.578): 490.146 RLU | RLU (Time (s) 161.578): 459.867 RLU | RLU (Time (s) 167.578): 446.745 RLU | RLU (Time (s) 173.578): 415.03 RLU | RLU (Time (s) 179.578): 413.791 RLU | RLU (Time (s) 191.578): 382.098 RLU | RLU (Time (s) 197.578): 382.449 RLU | RLU (Time (s) 209.578): 344.754 RLU | RLU (Time (s) 221.578): 256.376 RLU | RLU (Time (s) 233.578): 235.774 RLU | RLU (Time (s) 239.578): 212.664 RLU | RLU (Time (s) 245.578): 220.667 RLU | RLU (Time (s) 293.578): 147.781 RLU | RLU (Time (s) 299.578): 155.364 RLU | RLU (Time (s) 305.578): 177.719 RLU | RLU (Time (s) 311.578): 178.93 RLU | RLU (Time (s) 317.578): 167.01 RLU | RLU (Time (s) 323.578): 136.818 RLU | RLU (Time (s) 329.578): 148.504 RLU | RLU (Time (s) 335.578): 153.255 RLU | RLU (Time (s) 341.578): 110.601 RLU | RLU (Time (s) 347.578): 112.243 RLU | RLU (Time (s) 353.578): 94.0464 RLU | RLU (Time (s) 359.578): 105.186 RLU | Activation threshold concentration Tas2r117 (p < 0.01 vs empty vector): 30 µM
